Laboratory results reported in the NIST ThermoML archive (doi:10.1021/je060271a).

Settings: Liquid, Vibrating tube method

CCCCCCC(=O)OCC(COC(=O)CCCCCC)(COC(=O)CCCCCC)COC(=O)CCCCCC [pentaerythritol tetraheptanoate]
Settings | mass density [kg/m3]
343.16 K, 13701 kPa | 950.5
343.16 K, 13714 kPa | 950.6
343.16 K, 13726 kPa | 950.6
343.16 K, 13738 kPa | 950.7
343.16 K, 13753 kPa | 950.7
343.16 K, 13764 kPa | 950.6
343.16 K, 13779 kPa | 950.7
343.16 K, 13792 kPa | 950.7
343.16 K, 13806 kPa | 950.8
343.16 K, 13818 kPa | 950.6
343.16 K, 14528 kPa | 951.2
343.16 K, 14542 kPa | 951.2
343.16 K, 16080 kPa | 952.4
343.16 K, 16100 kPa | 952.3
343.16 K, 16118 kPa | 952.2
343.16 K, 32564 kPa | 962.8
343.16 K, 32603 kPa | 963
343.16 K, 32650 kPa | 963.1
343.16 K, 32688 kPa | 963
343.17 K, 14556 kPa | 951.3
343.17 K, 14573 kPa | 951.2
343.17 K, 14631 kPa | 951.4
343.17 K, 14645 kPa | 951.3
343.17 K, 14662 kPa | 951.3
343.17 K, 14676 kPa | 951.3
343.17 K, 14690 kPa | 951.3
343.17 K, 14707 kPa | 951.4
343.17 K, 14721 kPa | 951.4
343.17 K, 14735 kPa | 951.3
343.17 K, 14750 kPa | 951.3
343.17 K, 14767 kPa | 951.3
343.17 K, 14782 kPa | 951.4
343.17 K, 14796 kPa | 951.5
343.17 K, 14814 kPa | 951.5
343.17 K, 14828 kPa | 951.3
343.17 K, 14843 kPa | 951.4
343.17 K, 14858 kPa | 951.4
343.17 K, 14873 kPa | 951.5
343.17 K, 14890 kPa | 951.5
343.17 K, 14902 kPa | 951.5
343.17 K, 14922 kPa | 951.4
343.17 K, 14937 kPa | 951.4
343.17 K, 14952 kPa | 951.5
343.17 K, 14966 kPa | 951.6
343.17 K, 14984 kPa | 951.7
343.17 K, 14999 kPa | 951.6
343.17 K, 15013 kPa | 951.5
343.17 K, 15032 kPa | 951.7
343.17 K, 15048 kPa | 951.5
343.17 K, 15063 kPa | 951.4
343.17 K, 15077 kPa | 951.6
343.17 K, 15092 kPa | 951.6
343.17 K, 15110 kPa | 951.6
343.17 K, 15125 kPa | 951.6
343.17 K, 15140 kPa | 951.7
343.17 K, 15158 kPa | 951.6
343.17 K, 15173 kPa | 951.7
343.17 K, 15191 kPa | 951.6
343.17 K, 15206 kPa | 951.6
343.17 K, 15221 kPa | 951.7
343.17 K, 15240 kPa | 951.7
343.17 K, 15255 kPa | 951.6
343.17 K, 15270 kPa | 951.8
343.17 K, 15286 kPa | 951.7
343.17 K, 15305 kPa | 951.7
343.17 K, 15320 kPa | 951.9
343.17 K, 15338 kPa | 951.6
343.17 K, 15354 kPa | 951.8
343.17 K, 15369 kPa | 951.6
343.17 K, 15387 kPa | 951.9
343.17 K, 15403 kPa | 951.8
343.17 K, 15419 kPa | 952
343.17 K, 15437 kPa | 951.8
343.17 K, 15453 kPa | 951.8
343.17 K, 15469 kPa | 951.8
343.17 K, 15488 kPa | 951.9
343.17 K, 15504 kPa | 951.9
343.17 K, 15520 kPa | 951.9
343.17 K, 15536 kPa | 951.9
343.17 K, 15555 kPa | 951.9
343.17 K, 15571 kPa | 952
343.17 K, 15587 kPa | 951.9
343.17 K, 15606 kPa | 951.8
343.17 K, 15622 kPa | 952
343.17 K, 15638 kPa | 952.1
343.17 K, 15655 kPa | 952.1
343.17 K, 15674 kPa | 952.1
343.17 K, 15691 kPa | 952
343.17 K, 15707 kPa | 952
343.17 K, 15724 kPa | 952.2
343.17 K, 15743 kPa | 952
343.17 K, 15759 kPa | 952.1
343.17 K, 15778 kPa | 952
343.17 K, 15795 kPa | 952.1
343.17 K, 15812 kPa | 952.2
343.17 K, 15831 kPa | 952.1
343.17 K, 15848 kPa | 952.2
343.17 K, 15865 kPa | 952.2
343.17 K, 15884 kPa | 952.1
343.17 K, 15901 kPa | 952.2
343.17 K, 15918 kPa | 952.3
343.17 K, 15938 kPa | 952.3
343.17 K, 15955 kPa | 952.2
343.17 K, 15972 kPa | 952.2
343.17 K, 15989 kPa | 952.3
343.17 K, 16009 kPa | 952.3
343.17 K, 16025 kPa | 952.2
343.17 K, 16042 kPa | 952.3
343.17 K, 16062 kPa | 952.2
343.18 K, 14586 kPa | 951.4
343.18 K, 14600 kPa | 951.2
343.18 K, 14617 kPa | 951.3
